Results published in article PMC10108821, “Three tyrosine kinase inhibitors cause cardiotoxicity by inducing endoplasmic reticulum stress and inflammation in cardiomyocytes” (BMC Medicine, 2023).

Experiments:
NRCMs [1] = settings: for rescue from cell death induced by sorafenib: ISRIB 200 nM or 4μ8c 10 μM with 10 µM sorafenib, 24-hr
Procedure: After treatment, cells were stained with 5 μg/mL Propidium iodide (Sigma-Aldrich) mixed with Hoechst33342 (Solarbio) in Phenol red-free DMEM (Procell) in a 5% CO2 incubator at 37°C for 30 minutes. Images of PI staining were acquired through the filter Ex/Em=555/624nm and of the nuclei staining through the filter Ex/Em=405/452 using ImageXpress Micro Confocal-AWES (Molecular Devices).

NRCMs [2] = test: qRT-PCR of fetal, pro-inflammatory and ER stress genes with pathway-selective inhibitors; assay type: cell-based, rat; settings: 24 h; for effect on Atf4, Ddit3, Xbp1s and Dnajb9 expression induced by TKIs: ISRIB 200 nM or 4μ8c 10 μM with TKIs
Procedure: (§1) Rats were euthanized by decapitation and thoracic cavity was opened with scissors and hearts were popped out of the opening gently with fingers. Hearts were clipped and put in HBSS immediately; 20–40 hearts were collected into one sterile vial containing a magnetic stir bar and 1 mL digestive media made of 0.1% trypsin (Macklin) and 0.05% collagenase (Gibco) in HBSS. Hearts were minced until they were uniform in size. Digestive media was added to 10 mL for 40 hearts and stirred gently for 6 min. Supernatant was discarded and the digestion was repeated once; 10 mL digestive media was added and stirred gently for 10 min. The supernatant with cells were collected and the digestion and collection were repeated 4 times. Cells were centrifuged at 1200 rpm for 5 min, resuspended in media (Dulbecco’s modified Eagleʼs medium (Gibco)) with 10% fetal bovine serum (FBS; VISTECH), 1% penicillin–streptomycin, and 1% 0.1 M 5-bromo-2-deoxyuridine solution (Shanghai Yuanye) and filtered through a 40-μm cell strainer. Cells were seeded on a 100-mm plastic dish and cultured in a 5% CO2 incubator at 37 °C for 2 h to allow non-myocytes to adhere to the plate. The dish was swirled and media gently pipetted up and down to detach lightly attached cardiomyocytes. The collected myocytes were seeded in the same media described before; 48 h after plating, medium was exchanged to fresh DMEM (Gibco) with or without 2% FBS. All drug treatments were performed after this media change.
(§2) RNA was isolated based on a standard protocol using TRIzol reagent (Vazyme). TRIzol (1ml per 1 well of a 6-well plate) was used to lyse cells and chloroform was added for RNA separation. Samples were shaked vigorously by hand for 15 seconds and incubated at room temperature for 2-3 minutes. RNA was present in the aqueous phase after centrifuge at 12000 x g for 15 minutes. Isopropyl alcohol was mixed to precipitate RNA from the aqueous phase. RNA precipitations were washed with 75% ethanol once and re-dissolved in RNase-free water. 1 μg total RNA was used for cDNA synthesis using a reverse transcription kit (Bioman). We then measured expression of genes of interest with SYBRR Green qPCR Mix (Bioman) using Applied Biosystems 7500 Quantitative PCR Instrument. Gene expression was normalized to the 18S ribosomal RNA expression and primers were listed in Primers Table.

H9C2 cell line = test: qRT-PCR of inflammatory genes in H9C2 cells; assay type: cell-based, rat; settings: ISRIB 200 nM or salubrinal 20 μM with 3 TKIs, 24-hr
Procedure: as §2
H9C2 cells were a gift from Dr. Rong Qi in Peking University Health Science Center (they were originally purchased from the Cell Bank/Stem cell bank, Chinese Academy of Science). […] Media was changed to DMEM (Gibco) containing 2% FBS 12 hours before treatment. All treatments were performed under DMEM containing 2% FBS.

NRCMs [3] = test: Mitochondrial membrane potential by TMRE staining; assay type: cell-based, rat; settings: 24 h of treatment
[4] = FDA adverse event reporting system (FAERS) analysis, reporting odds ratios; settings: July 2014 to December 2020
Cor.4U hiPSC-CMs [5] = test: 3'DGE-UMI RNAseq transcriptome of hiPSC-CMs
rat left ventricles = test: Rat gavage cardiotoxicity model: qRT-PCR in left ventricles; assay type: in vivo
patients = settings: cited from earlier work
NRCMs [6] = test: Calcium staining with Calbryte 520 AM; assay type: cell-based, rat; settings: 0.5 and 1 h; 10 µM afatinib, 10 µM sorafenib, 5.62 µM ponatinib
Sprague-Dawley rats = test: Rat gavage cardiotoxicity model: survival, heart and body weight
NRCMs [7] = test: Seahorse assay: oxygen consumption and extracellular acidification; assay type: cell-based, rat; settings: 24 h; fixed doses: 10 µM, crizotinib and ponatinib 3.16 µM
Procedure: as §1
NRCMs were seeded evenly into the Seahorse XF96 cell culture plates (Agilent) and cultured in DMEM high glucose with 2% FBS. About 2 hours before the test, cells were moved to a non-CO2 incubator at 37 ° C and incubated for 1 hour. 1 hour prior to the test, culture media was replaced with the Seahorse Basal DMEM at 37°C (with appropriate concentration of glucose, 4mM L-glutamine, 1 mM sodium pyruvate and 1% penicillin-streptomycin solution) and incubated in a non-CO2 incubator at 37°C for 1 hour. Drugs were prepared at 8x to 10x concentrations with the corresponding seahorse media as in each well and added into ports of Seahorse XF96 cartridge plates which have been hydrated overnight. XFe96 Extracellular Flux Analyzer (Agilent) was used to measure oxygen consumption rate and extracellular acidification rate of cells with different drug treatments.

ER stress genes in NRCMs = test: qRT-PCR of ER stress genes in NRCMs; assay type: cell-based, rat
Procedure: as §1, with “The collected myocytes were seeded in the same media described before; 48 h after plating, medium was exchanged to fresh DMEM (Gibco) with or without 2% FBS.” left out
as §2, with “RNA precipitations were washed with 75% ethanol once and re-dissolved in RNase-free water.” left out

HELP hiPSC-CMs = test: CardioExcyte 96 microelectrode array: base impedance and extracellular field potential; assay type: cell-based, human; settings: fixed doses: 10 µM, crizotinib and ponatinib 3.16 µM; up to 24 h
Procedure: HELP hiPSC-CMs were seeded evenly into the 96-well microelectrode array, NSP-96 0.6mm sensor plate (Nanion technologies), at 50,000 cells per well. Measurements were started after 3-5 days of culture of these cells and until the impedance and the extracellular field potential are stable. Measurements were taken a few times before drug addition, and every 30~60 minutes after the drugs were added at 2x concentration. Values were averaged from 3 wells per group. Beat rate, amplitude of impedance, base impedance and FPDc were calculated by the Cardio Excyte Control 96 software package (Nanion Technologies).

[8] = test system: Phospho-eIF2α, XBP1s, ATF6 (cleaved); test: Western blot of ER stress effectors in NRCMs; assay type: cell-based, rat
Cor.4U hiPSC-CMs [9] = test: ATP level (CellTiter-Glo) in hiPSC-CMs; assay type: cell-based, human
Procedure: ATP content was measured using the CellTiter-Glo Luminescent Cell Viability Assay (Promega) following the manufacturer’s protocol. After adding CellTiter-Glo reagents and incubation, luminescence was quantified using a Synergy H1 plate reader (BioTek Instruments). ATP standards were prepared from 0.01 to 5 μM. For each drug, we fitted a four-parameter log-logistic model to calculate ED50 at day 5 (Fig S1). To rank the cellular toxicity of the eight TKIs (Fig 1T), we calculated (EC50-Cmax)/(EC50+Cmax) and arranged from the smallest to the biggest for increasing cellular toxicity.

[10] = high PC1 loadings, ponatinib at high dose

Cc1cc(=O)oc2c(C=O)c(O)ccc12 [4μ8c]
rescue from cell death induced by sorafenib (NRCMs [1]): significantly rescued cardiac cell from death induced by sorafenib
induction of inflammatory genes and cardiac fetal genes (Anp, Bnp/Nppb, Myh6) by TKIs (NRCMs [2]; 4μ8c 10 μM co-treatment with TKIs): blunted
effect on Atf4, Ddit3, Xbp1s and Dnajb9 expression induced by TKIs (NRCMs [2]): inhibited Xbp1s and Dnajb9 without affecting the ATF4 axis

O=C(COc1ccc(Cl)cc1)NC1CCC(NC(=O)COc2ccc(Cl)cc2)CC1 (stereo not drawn) [ISRIB]
rescue from cell death induced by sorafenib (NRCMs [1]): had no such effect
expression of Txnip, Il1b, Tnf, Nfkb1 and Il6 induced by TKIs (NRCMs [2]; ISRIB 200 nM co-treatment): inhibited the expression of Txnip, Il1b, and Tnf to similar degrees as 4μ8c, but did not hamper the expression of Nfkb1 and Il6 as potently as 4μ8c in combination with ponatinib
expression of cardiac fetal genes induced by TKIs (NRCMs [2]; ISRIB 200 nM co-treatment): inhibited the expression of cardiac fetal genes to a similar level as 4μ8c
effect on Atf4, Ddit3, Xbp1s and Dnajb9 expression induced by TKIs (NRCMs [2]): inhibited Atf4 and Ddit3 significantly without affecting the XBP1s axis too much
expression of inflammatory genes induced by TKIs (H9C2 cell line): blocked upregulation of inflammatory genes (Nfkb1, Il6. and Tnf) by TKIs

Cc1ccc(C(=O)Nc2ccc(CN3CCN(C)CC3)c(C(F)(F)F)c2)cc1C#Cc1cnc2cccnn12 [ponatinib]
mitochondrial membrane potential (NRCMs [3]): trend of decreasing mitochondrial membrane potentials
cardiotoxicity events in FAERS, reporting odds ratios (RORs) [4]: caused the most cardiotoxicity with significant reporting odds ratios (RORs)
expression of tRNA aminoacylation gene markers (SARS, GARS) (Cor.4U hiPSC-CMs [5]; Cluster 3): increased
expression of genes associated with heart contraction (Cor.4U hiPSC-CMs [5]; Cluster 4, day 3 or day 5): upregulated
expression of genes associated with ER stress (ATF4, NUPR1, DDIT3, TRIB3, CHAC1, SESN2, HERPUD1) (Cor.4U hiPSC-CMs [5]; [10]): upregulated
expression of genes related to cardiomyopathy and sarcomeric structure (MYH7, SYNPO2L, LDB3, ACTN2, MYLK3) (Cor.4U hiPSC-CMs [5]; [10]): downregulated
cell death (NRCMs [1]; 24-h treatment, 10 µM afatinib, 10 µM sorafenib, 5.62 µM ponatinib): very little cell death
Dnajb9 expression (rat left ventricles; day 7, 15 mg/kg): significantly increased
gene expression of Anp (rat left ventricles; ponatinib 15 mg/kg, sorafenib 50 mg/kg gavage, 3 or 7 days): significant increase
incidence of arterial occlusion events (patients): 26%
level of cardiotoxicity based on literature reports (patients; ref Table S1, 2, 4, 26–36): high-levels of cardiotoxicity
cytosolic calcium concentration (NRCMs [6]): did not cause any significant changes in calcium concentration
death of animals (Sprague-Dawley rats; 15 mg/kg gavage once daily, 3 or 7 days): one rat died
heart or body weight (Sprague-Dawley rats; day 7, ponatinib 15 mg/kg, sorafenib 50 mg/kg gavage once daily): decreased
basal oxygen consumption rate (OCR) (NRCMs [7]): trend of inhibiting basal oxygen consumption rate (OCR)
maximal, spare and non-mitochondrial oxygen consumption (NRCMs [7]): inhibited maximal, spare, and non-mitochondrial oxygen consumption significantly
expression of Dnajb9 (ER stress genes in NRCMs; 24 h): most robust upregulation of Dnajb9 among the 3 TKIs
expression of Herpud1 (ER stress genes in NRCMs; 24 h): most induced
temporal activation of ER stress genes, 72 versus 24 h (ER stress genes in NRCMs; afatinib 5.62 µM, sorafenib 3.16 μM, ponatinib 1.78 μM): the ATF4 and the ATF6 axes, but not XBP1s, showed time-dependent upregulation
relative activation of the three UPR branches (ER stress genes in NRCMs; high-dose treatment, 24 h): induced activation of three axes to similar degrees
effect on beat rate, contraction, base impedance and corrected field potential duration (HELP hiPSC-CMs): reduced beat rate and corrected field potential duration
duration of activated eIF2α phosphorylation [8]: 24 h
effect on ATP levels (Cor.4U hiPSC-CMs [9]; 0.32 to 10 µM, day 1 to day 5): dose-dependent and time-dependent reduction in ATP levels
dose-dependent toxicity (ATP fold changes) (Cor.4U hiPSC-CMs [9]; day 1, different doses, RNAseq conditions): dose-dependent toxicity

O=C(/C=C/c1ccccc1)NC(NC(=S)Nc1cccc2cccnc12)C(Cl)(Cl)Cl (stereo not drawn) [salubrinal]
expression of inflammatory genes induced by TKIs (H9C2 cell line): increased the expression level of some pro-inflammatory genes, such as Nfkb1, Il6, and Tnf, but not Il1b
